Results: patent US9243002B2, “Tetracyclic heterocycle compounds and methods of use thereof for the treatment of hepatitis C” (priority 2013, dated 2016)
Where two headings read alike, the source gives them in different places.

Legend:
[1] = system: HCV genotype 1a replicon; experiment: HCV replicon assay, genotype 1a (cell ELISA for NS3/4A); type: cell-based, hepatitis C virus
Procedure: (§1) Measurement of inhibition by compounds was performed using the HCV replicon system. Several different replicons encoding different HCV genotypes or mutations were used. In addition, potency measurements were made using different formats of the replicon assay, including different ways of measurements and different plating formats. See Jan M. Vrolijk et al., A replicons-based bioassay for the measurement of interferons in patients with chronic hepatitis C, 110 J. VIROLOGICAL METHODS 201 (2003); Steven S. Carroll et al., Inhibition of Hepatitis C Virus RNA Replication by 2′-Modified Nucleoside Analogs, 278 (14) J. BIOLOGICAL CHEMISTRY 11979 (2003). However, the underlying principles are common to all of these determinations, and are outlined below.
(§2) Stable neomycin phosphotransferase encoding replicons-harboring cell lines were used, so all cell lines were maintained under G418 selection prior to the assay. Potency was deteremined using a cell ELISA assay with an antibody to the replicons encoded NS3/4a protease. See Caterina Trozzi et al., In Vitro Selection and Characterization of Hepatitis C Virus Serine Protease Variants Resistant to an Active-Site Peptide Inhibitor, 77 (6) J. Virol. 3669 (2003). To initiate an assay, replicon cells were plated in the presence of a dilution series of test compound in the absence of G418. Typically, the assays were performed in a 96-well plate formate for manual operation, or a 384-well plate format for automated assay. Replicon cells and compound were incubated for 96 hours. At the end of the assay, cells were washed free of media and compound, and the cells were then lysed. RNA was quantified indirectly through detection of replicon-encoded NS3/4A protein levels, through an ELISA-based assay with an antibody specific for NS3/4A. IC50 determinations were calculated as a percentage of a DMSO control by fitting the data to a four-parameter fit function and the data obtained for genotypes 1a and 1b using this method is provided in the table below.

[2] = system: HCV genotype 1b replicon; experiment: HCV replicon assay, genotype 1b (cell ELISA for NS3/4A); type: cell-based, hepatitis C virus
Procedure: as §1, §2

[3] = read-out: 1a IC50, genotype 1a replicon cells, 96 hours incubation, NS3/4A ELISA
[4] = Hepatitis C virus, 96 h, read-out: 1b IC50 (nM), genotype 1b replicon cells, 96 hours incubation, NS3/4A ELISA
[5] = read-out: 1b IC50, genotype 1b replicon cells, 96 hours incubation, NS3/4A ELISA
[6] = genotype 1a replicon cells, 96 hours incubation, NS3/4A ELISA, read-out: 1a IC50
[7] = genotype 1b replicon cells, 96 hours incubation, NS3/4A ELISA, read-out: 1b IC50
[8] = Hepatitis C virus, 96 h, read-out: 1a IC50 (nM), genotype 1a replicon cells, 96 hours incubation, NS3/4A ELISA

Compound: CNC(=O)c1c(-c2ccc(F)cc2)oc2cc(N(C)S(C)(=O)=O)c(-c3cc4c(cn3)CC(C)n3c-4cc4c(F)cccc43)cc12 (single isomer, unassigned) [Example 41, (R or S)-5-(11-fluoro-6-methyl-5,6-dihydroindolo[2,1-a][2,6]naphthyridin-2-yl)-2-(4-fluorophenyl)-N-methyl-6-(N-methylmethylsulfonamido)benzofuran-3-carboxamide]
- IC50 [1, 3]: 19.3 nM
- IC50 [2, 4]: 6.33 nM

Compound: CNC(=O)c1c(-c2ccc(F)cc2)oc2cc(N(C)S(C)(=O)=O)c(-c3cc4c(cn3)CC(C)n3c-4cc4c(F)cccc43)cc12 (single isomer, unassigned) [Example 42, (S or R)-5-(11-fluoro-6-methyl-5,6-dihydroindolo[2,1-a][2,6]naphthyridin-2-yl)-2-(4-fluorophenyl)-N-methyl-6-(N-methylmethylsulfonamido)benzofuran-3-carboxamide]
- IC50 [1, 3]: 3.1 nM
- IC50 [2, 5]: 5.47 nM

Compound: CNC(=O)c1c(-c2ccc(F)cc2F)oc2cc(N(C)S(C)(=O)=O)c(-c3ccc4c(n3)-c3cc5c(F)cccc5n3C(CO)C4)cc12 (single isomer, unassigned) [Example 50, (R or S)-2-(2,4-difluorophenyl)-5-(1.1-fluoro-6-(hydroxymethyl)-5,6-dihydroindolo[1,2-h][1,7]naphthyridin-2-yl)-N-methyl-6-(N-methylmethylsulfonamido)benzofuran-3-carboxamide]
- IC50 [1, 6]: 1.15 nM
- IC50 [2, 7]: 3.36 nM

Compound: CNC(=O)c1c(-c2ccc(F)cc2F)oc2cc(N(C)S(C)(=O)=O)c(-c3ccc4c(n3)-c3cc5c(F)cccc5n3C(CO)C4)cc12 (single isomer, unassigned) [Example 51, (S or R)-2-(2,4-difluorophenyl)-5-(11-fluoro-6-(hydroxymethyl)-5,6-dihydroindolo[1,2-h][1,7]naphthyridin-2-yl)-N-methyl-6-(N-methylmethylsulfonamido)benzofuran-3-carboxamide]
- IC50 [1, 8]: 4.49 nM
- IC50 [2, 4]: 3.42 nM

Compound: CNC(=O)c1c(-c2ccc(F)cc2)oc2cc(N(C)S(C)(=O)=O)c(-c3ccc4c(n3)-c3cc5c(F)cccc5n3C(CS(C)(=O)=O)C4)cc12 (single isomer, unassigned) [Example 56, (R or S)-5-(11-fluoro-6-((methylsulfonyl)methyl)-5,6-dihydroindolo[1,2-h][1,7]naphthyridin-2-yl)-2-(4-fluorophenyl)-N-methyl-6-(N-methylmethylsulfonamido)benzofuran-3-carboxamide]
- IC50 [1, 3]: 3.4 nM
- IC50 [2, 4]: 2 nM

Compound: CNC(=O)c1c(-c2ccc(F)cc2)oc2cc(N(C)S(C)(=O)=O)c(-c3ccc4c(n3)-c3cc5c(F)cccc5n3C(CS(C)(=O)=O)C4)cc12 (single isomer, unassigned) [Example 57, (S or R)-5-(11-fluoro-6-((methylsulfonyl)methyl)-5,6-dihydroindolo[1,2-h][1,7]naphthyridin-2-yl)-2-(4-fluorophenyl)-N-methyl-6-(N-methylmethylsulfonamido)benzofuran-3-carboxamide]
- IC50 [1, 3]: 8.16 nM
- IC50 [2, 5]: 3.39 nM

Compound: CNC(=O)c1c(-c2ccc(F)cc2)oc2cc(N(C)S(C)(=O)=O)c(-c3cc4c(cn3)C(C)Cn3c-4cc4c(F)cccc43)cc12 (single isomer, unassigned) [Example 60, (R or S)-5-(11-fluoro-5-methyl-5,6-dihydroindolo[2,1-a][2,6]naphthyridin-2-yl)-2-(4-fluorophenyl)-N-methyl-6-(N-methylmethylsulfonamido)benzofuran-3-carboxamide]
- IC50 [1, 3]: 5 nM
- IC50 [2, 4]: 10.1 nM

Compound: CNC(=O)c1c(-c2ccc(F)cc2)oc2cc(N(C)S(C)(=O)=O)c(-c3cc4c(cn3)C(C)Cn3c-4cc4c(F)cccc43)cc12 (single isomer, unassigned) [Example 61, (S or R)-5-(11-fluoro-5-methyl-5,6-dihydroindolo[2,1-a][2,6]naphthyridin-2-yl)-2-(4-fluorophenyl)-N-methyl-6-(N-methylmethylsulfonamido)benzofuran-3-carboxamide]
- IC50 [1, 3]: 2.27 nM
- IC50 [2, 5]: 7.8 nM

Compound: CNC(=O)c1c(-c2ccc(C(F)(F)F)cc2)oc2cc(N(C)S(C)(=O)=O)c(-c3ccc4c(n3)-c3cc5c(F)cccc5n3CC4)cc12 [Example 1, 5-(11-fluoro-5,6-dihydroindolo[1,2-h][1,7]naphthyridin-2-yl)-N-methyl-6-(N-methylmethylsulfonamido)-2-(4-(trifluoromethyl)phenyl)benzofuran-3-carboxamide]
- IC50 [1, 6]: 3.78 nM
- IC50 [2, 7]: 4.67 nM

Compound: CNC(=O)c1c(-c2ccc(OC(F)F)nc2)oc2cc(N(C)S(C)(=O)=O)c(-c3ccc4c(n3)-c3cc5c(F)cccc5n3CC4)cc12 [Example 2]
- IC50 [1, 8]: 2.09 nM
- IC50 [2, 4]: 3.9 nM

Compound: CNC(=O)c1c(-c2ccc(C(F)F)nc2)oc2cc(N(C)S(C)(=O)=O)c(-c3ccc4c(n3)-c3cc5c(F)cccc5n3CC4)cc12 [Example 3]
- IC50 [1, 8]: 7.94 nM
- IC50 [2, 4]: 6.69 nM

Compound: CNC(=O)c1c(-c2ccc(OCC(F)(F)F)nc2)oc2cc(N(C)S(C)(=O)=O)c(-c3ccc4c(n3)-c3cc5c(F)cccc5n3CC4)cc12 [Example 4]
- IC50 [1, 8]: 6.99 nM
- IC50 [2, 4]: 7.3 nM

Compound: CNC(=O)c1c(-c2ccc(OC3CC3)nc2)oc2cc(N(C)S(C)(=O)=O)c(-c3ccc4c(n3)-c3cc5c(F)cccc5n3CC4)cc12 [Example 5]
- IC50 [1, 8]: 3.86 nM
- IC50 [2, 4]: 2.3 nM

Compound: CNC(=O)c1c(-c2ccc(C3CC3)nc2)oc2cc(N(C)S(C)(=O)=O)c(-c3ccc4c(n3)-c3cc5c(F)cccc5n3CC4)cc12 [Example 6]
- IC50 [1, 8]: 16.8 nM
- IC50 [2, 4]: 10.2 nM

Compound: CNC(=O)c1c(-c2ccc(C)nc2)oc2cc(N(C)S(C)(=O)=O)c(-c3ccc4c(n3)-c3cc5c(F)cccc5n3CC4)cc12 [Example 7]
- IC50 [1, 8]: 17.6 nM
- IC50 [2, 4]: 6.79 nM

Compound: CNC(=O)c1c(-c2cnc3c(c2)OCCO3)oc2cc(N(C)S(C)(=O)=O)c(-c3ccc4c(n3)-c3cc5c(F)cccc5n3CC4)cc12 [Example 8]
- IC50 [1, 8]: 580 nM
- IC50 [2, 4]: 122 nM

Compound: CCc1ccc(-c2oc3cc(N(C)S(C)(=O)=O)c(-c4ccc5c(n4)-c4cc6c(F)cccc6n4CC5)cc3c2C(=O)NC)cn1 [Example 9]
- IC50 [1, 8]: 38.2 nM
- IC50 [2, 4]: 31.2 nM

Compound: CNC(=O)c1c(-c2ccc(F)cc2C)oc2cc(N(C)S(C)(=O)=O)c(-c3ccc4c(n3)-c3cc5c(F)cccc5n3CC4)cc12 [Example 10]
- IC50 [1, 8]: 9.44 nM
- IC50 [2, 4]: 10.7 nM

Compound: CNC(=O)c1c(-c2ccc(C(C)C)nc2)oc2cc(N(C)S(C)(=O)=O)c(-c3ccc4c(n3)-c3cc5c(F)cccc5n3CC4)cc12 [Example 11]
- IC50 [1, 8]: 2120 nM
- IC50 [2, 4]: 661 nM

Compound: CNC(=O)c1c(-c2ccc(F)cc2Cl)oc2cc(N(C)S(C)(=O)=O)c(-c3ccc4c(n3)-c3cc5c(F)cccc5n3CC4)cc12 [Example 12]
- IC50 [1, 8]: 4.59 nM
- IC50 [2, 4]: 10.6 nM

Compound: CNC(=O)c1c(-c2ccc(F)cc2C#N)oc2cc(N(C)S(C)(=O)=O)c(-c3ccc4c(n3)-c3cc5c(F)cccc5n3CC4)cc12 [Example 13]
- IC50 [1, 8]: 17.3 nM
- IC50 [2, 4]: 16.5 nM

Compound: CNC(=O)c1c(-c2cnc(C)c(F)c2)oc2cc(N(C)S(C)(=O)=O)c(-c3ccc4c(n3)-c3cc5c(F)cccc5n3CC4)cc12 [Example 14]
- IC50 [1, 8]: 26.4 nM
- IC50 [2, 4]: 24.3 nM

Compound: CNC(=O)c1c(-c2ccc(F)nc2)oc2cc(N(C)S(C)(=O)=O)c(-c3ccc4c(n3)-c3cc5c(F)cccc5n3CC4)cc12 [Example 15]
- IC50 [1, 8]: 3.41 nM
- IC50 [2, 4]: 5.09 nM

Compound: CNC(=O)c1c(C2CC2)oc2cc(N(C)S(C)(=O)=O)c(-c3ccc4c(n3)-c3cc5c(F)cccc5n3CC4)cc12 [Example 16]
- IC50 [1, 8]: 27 nM
- IC50 [2, 4]: 14.6 nM
